Like-named read-outs stand apart in the source and are kept apart here.
Legend:
NCI-H460 = experiment: MTS cell viability assay; format: cell-based, human; details: Homo sapiens, NCI-H460, 72 h
Experimental: Cell viability was determined by measuring the activity of dehydrogenase enzymes in metabolically active cells using a tetrazolium compound, MTS. The assay was performed as described in Promega Technical Bulletin No. 169 (CellTiter 96 Aqueous Non-Radioactive Cell Proliferation Assay). Two human cancer cell lines were assayed (see, Table 1). Cells were maintained at 37° C. and 5% CO2 in DMEM media (4.5 g/L glucose) supplemented with 10% heat-inactivated FBS, 10 mM L-glutamine, and 10 mM Hepes pH 7.5. Briefly, cells were seeded in 96-well plates as set forth in Table 1 and incubated for 16-24 hours. Candidate compounds were serially diluted in DMSO, further diluted in cell culture media, and then added to cells (final DMSO concentration of 0.33%). Cells were incubated in the presence of candidate compound for 72 hours. MTS stock solution (MTS 2 gm/L, PMS […] in PBS) was added to the cells (final concentration MTS […] and PMS 7.67 mg/L) and incubated for 4 hours. SDS was added to a final concentration of 1.4% and absorbance at 490 nm was measured within two hours using a plate reader. […] GI50 values were given in Table 2 for the compounds listed. The Compound Numbers in Table 2 correspond to the numbers listed parenthetically in the Example titles. Where multiple measurements were made by different technicians, both values are given.
Cell viability was determined for N-(3-amino-propyl)-3-chloro-N—[(R)-1-(7-chloro-4-oxo-3-phenylamino-3,4-dihydro-quinazolin-2-yl)-but-3-ynyl]-2-fluoro-benzamide (compound I of Table 2). The cell viability assay of Example 105 was used. GI50 was determined using a variety of cell lines. Cells were plated at 100-5000 cells per well. At least 2 replicates were performed. Where multiple measurements were made by different technicians, both values are given.

A549 = experiment: MTS cell viability assay; format: cell-based; details: Homo sapiens, A549 non small cell lung, 72 hours, read-out: MTS NCI A549 GI50
Experimental: Two human cancer cell lines were assayed (see, Table 1). Cells were maintained at 37° C. and 5% CO2 in DMEM media (4.5 g/L glucose) supplemented with 10% heat-inactivated FBS, 10 mM L-glutamine, and 10 mM Hepes pH 7.5. Briefly, cells were seeded in 96-well plates as set forth in Table 1 and incubated for 16-24 hours. Candidate compounds were serially diluted in DMSO, further diluted in cell culture media, and then added to cells (final DMSO concentration of 0.33%). Cells were incubated in the presence of candidate compound for 72 hours. […] The Compound Numbers in Table 2 correspond to the numbers listed parenthetically in the Example titles.

HsEg5 = biological target: T1, HsEg5 (Homo sapiens, UniProt P52732); experiment: Fluorescence detection of HsEg5 ATPase activity (ADP Quest, automated); format: biochemical
T1 sequence (P52732 18-359 limits assumed): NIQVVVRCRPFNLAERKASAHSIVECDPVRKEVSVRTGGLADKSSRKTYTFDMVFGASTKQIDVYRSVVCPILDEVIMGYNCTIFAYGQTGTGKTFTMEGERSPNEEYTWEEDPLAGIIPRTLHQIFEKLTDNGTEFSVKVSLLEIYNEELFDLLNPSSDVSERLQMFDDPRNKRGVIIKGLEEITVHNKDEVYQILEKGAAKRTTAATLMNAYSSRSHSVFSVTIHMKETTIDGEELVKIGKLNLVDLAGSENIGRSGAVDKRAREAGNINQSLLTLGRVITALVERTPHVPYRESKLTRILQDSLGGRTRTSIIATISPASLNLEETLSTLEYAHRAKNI
Experimental: Purified HsEg5 motor fragment was activated by mixture with preformed MT polymer (Cytoskeleton, Denver, Colo.) at room temperature for 20 minutes. MT activated ATPase activity was measured using ADP Quest (DiscoverX, Fremont, Calif.) in which a coupled-enzyme assay can translate accumulation of ADP into detectable resorufin signal (FIG. 1A). Fluorescence was measured at λEx=535 nm and λEm=590 nm on a Wallac Victor 2 plate reader (Perkin-Elmer Life Sciences, Boston, Mass.). Reagent A and B from ADP Quest kit were aliquoted and frozen in −20° C. before use. A standard curve was determined using the provided ADP reagent in the reaction buffer that consisted of 50 mM Pipes (pH7.0), 5.0 mM MgCl2, 20 μM paclitaxel and […]. The same buffer was used for Km determination with HsEg5 concentration of 10 nM.
For inhibitor screening, 4 μL of compounds were incubated with 10 μL of MT-activated HsEg5 such that the final concentrations for compound range from 100 μM to 5 nM (1 to 3 serial dilutions, final concentration) and final concentration for HsEg5 is 10 nM. The mixture was incubated at room temperature for 10 minutes with mild shaking. The screening assay contained 0.3% DMSO in all reaction wells. We used wells containing only DMSO as negative controls and wells without ATP as background. Addition of 6 μL ATP (final concentration of 20 μM) initiated the ATP hydrolysis reaction. The 20 μL-reaction was allowed to proceed at room temperature for 10 minutes before addition of 10 μL of reagent A and 20 μL of reagent B. After 20-minute development at room temperature, the fluorescence was measured and data analysis was performed using GraphPad Prism version 3.0 (GraphPad Software, San Diego, Calif.)
For the purpose of high-throughput screening, we automated the fluorescence assay using a Sciclone ALH3000 (Caliper Life Sciences, Hopkinton, Mass.) and Multidrop 384 (Thermo Electron Corp, Waltham, Mass.). First, compound dilution plates for screening (at 10 μM or 1 μM) and ICso determination (10 data points from 100 μM to 5 nM) were made in Corning polypropylene V-bottom 96-well plates. In both cases, the 1st and 7th column contained background (No ATP addition) and negative control (DMSO only). For screening compounds at 10 μM or 1 μM, […] of each compound at 50 μM or 5 μM were used in a 20 μL assay reaction. For IC50 determination, the mother compound plate contained 24 μL of tested compound at stock concentration of 30 mM. 6 μL of each test compound in 30 mM was added to each well in the column 2 and followed by 1:3 serial dilutions in DMSO with the Sciclone ALH3000. 234 μL of assay buffer was then added using a Multidrop 384. Then 4 μL of diluted compounds was used in 20 μL-reaction. The final concentration was a 1:300 dilution of the original stock. Second, a reagent source plate was prepared with three rows designated to MT-activated HsEg5, Reagent A and Reagent B respectively. MTs were diluted with assay buffer and polymerized at room temperature for 10 minutes. Just before use, HsEg5 protein was thawed on ice and activated by addition of MT polymers at room temperature for 20 minutes. HsEg5/MT was then added to Row A of the reagent source plate. The final assay concentration was 10 nM HsEg5 and 500 nM MTs. Reagent A and B were stored at −20° C. and thawed at room temperature followed by transferring to rows B & C of the reagent source plate. Third, ATP substrate plate was prepared by transferring 80 μM ATP solution to each well of a V-shape 96-well plate except the wells in the first row where assay buffer was added instead to have no-ATP blanks. The final concentration for ATP in the assay was 20 μM.
The assay was programmed on Sciclone ALH3000 with the following procedures: 1) Addition of 4 μL compounds to the assay plate, followed by addition of 10 μL of MT-activated HsEg5. […]

[1] = read-out: MTS NCI H460 GI50, NCI-H460 non small cell lung, 72 hours

With `CCC(c1nc2cc(Cl)ccc2c(=O)n1Nc1ccccc1)N(CCCN)C(=O)c1ccc(F)c(Cl)c1F` (stereo not drawn) [Compound 20, N-(3-Aminopropyl)-N-[1-(3-anilino-7-chloro-4-oxo-3,4-dihydroquinazolin-2-yl)propyl]-3-chloro-2,4-difluorobenzamide] the GI50 (NCI-H460; read-out: MTS NCI H460 GI50) was 1000 nM, the GI50 (A549) was 1800 nM and the IC50 (HsEg5) was 844 nM.
With `CCC(c1nc2cc(Cl)ccc2c(=O)n1Nc1ccccc1)N(CCCN)C(=O)c1ccc(C)c(F)c1F` (stereo not drawn) [Compound 21, N-(3-Aminopropyl)-N-[1-(3-anilino-7-chloro-4-oxo-3,4-dihydroquinazolin-2-yl)propyl]-2,3-difluoro-4-methylbenzamide] the GI50 (NCI-H460; [1]) was 1080 nM, the GI50 (A549; A549, 72 h) was 1930 nM and the IC50 (HsEg5) was 1250 nM.
In the case of `CCC(c1nc2cc(Cl)ccc2c(=O)n1Nc1ccccc1)N(CCCN)C(=O)c1ccc2ccccc2n1` (stereo not drawn) [Compound 22, N-(3-Aminopropyl)-N-[1-(3-anilino-7-chloro-4-oxo-3,4-dihydroquinazolin-2-yl)propyl]quinoline-2-carboxamide], the GI50 (NCI-H460; read-out: MTS NCI H460 GI50) is reported as 1170 nM, the GI50 (A549) is reported as 2080 nM and the IC50 (HsEg5) is reported as 1610 nM.
For `CCC(c1nc2cc(Cl)ccc2c(=O)n1Nc1ccccc1)N(CCCN)C(=O)c1ccc(-n2cccn2)cc1` (stereo not drawn) [Compound 23, N-(3-Aminopropyl)-N-[1-(3-anilino-7-chloro-4-oxo-3,4-dihydroquinazolin-2-yl)propyl]-4-(1H-pyrazol-1-yl)benzamide], the GI50 (NCI-H460; [1]) was 1120 nM, the GI50 (A549; A549, 72 h) was 2490 nM and the IC50 (HsEg5) was 1020 nM.
Work on `CCC(c1nc2cc(Cl)ccc2c(=O)n1Nc1cccc(F)c1)N(CCCN)C(=O)c1ccc(C)cc1` (stereo not drawn) [Compound 24, N-(3-Aminopropyl)-N-(1-{7-chloro-3-[(3-fluorophenyl)amino]-4-oxo-3,4-dihydroquinazolin-2-yl}propyl)-4-methylbenzamide] yielded a GI50 (NCI-H460; read-out: MTS NCI H460 GI50) of 1090 nM, a GI50 (A549) of 1790 nM and an IC50 (HsEg5) of 1050 nM.
For `CCC(c1nc2cc(Cl)ccc2c(=O)n1Nc1ccccc1F)N(CCCN)C(=O)c1ccc(C)cc1` (stereo not drawn) [Compound 25, N-(3-Aminopropyl)-N-(1-{7-chloro-3-[(2-fluorophenyl)amino]-4-oxo-3,4-dihydroquinazolin-2-yl}propyl)-4-methylbenzamide], the GI50 (NCI-H460; read-out: MTS NCI H460 GI50) was 959 nM, the GI50 (A549) was 1520 nM and the IC50 (HsEg5) was 1430 nM.
Work on `CCC(c1nc2cc(Cl)ccc2c(=O)n1Nc1cc(F)ccc1F)N(CCCN)C(=O)c1ccc(C)cc1` (stereo not drawn) [Compound 26, N-(3-Aminopropyl)-N-(1-{7-chloro-3-[(2,5-difluorophenyl)amino]-4-oxo-3,4-dihydroquinazolin-2-yl}propyl)-4-methylbenzamide] yielded a GI50 (NCI-H460; read-out: MTS NCI H460 GI50) of 889 nM, a GI50 (A549) of 1250 nM and an IC50 (HsEg5) of 944 nM.
`CCC(c1nc2ccc(Cl)cc2c(=O)n1Nc1ccccc1)N(CCCN)C(=O)c1ccc(C)cc1` (stereo not drawn) [Compound 27, N-(3-Aminopropyl)-N-[1-(3-anilino-6-chloro-4-oxo-3,4-dihydroquinazolin-2-yl)propyl]-4-methylbenzamide] was tested, and the GI50 (NCI-H460; read-out: MTS NCI H460 GI50) was 1080 nM, the GI50 (A549) was 2220 nM and the IC50 (HsEg5) was 1280 nM.
Work on `CCC(c1nc2ccc(C)cc2c(=O)n1Nc1ccccc1)N(CCCN)C(=O)c1ccc(C)cc1` (stereo not drawn) [Compound 28, N-(3-Aminopropyl)-N-[1-(3-anilino-6-methyl-4-oxo-3,4-dihydroquinazolin-2-yl)propyl]-4-methylbenzamide] yielded a GI50 (NCI-H460; read-out: MTS NCI H460 GI50) of 1350 nM, a GI50 (A549) of 2500 nM and an IC50 (HsEg5) of 1590 nM.
In the case of `CCC(c1nc2cc(Cl)ccc2c(=O)n1Oc1ccccc1)N(CCCN)C(=O)c1ccc(C)cc1` (stereo not drawn) [Compound 29, N-(3-Aminopropyl)-N-[1-(7-chloro-4-oxo-3-phenoxy-3,4-dihydroquinazolin-2-yl)propyl]-4-methylbenzamide], the GI50 (NCI-H460; [1]) is reported as 2090 nM, the GI50 (A549; A549, 72 h) is reported as 3310 nM and the IC50 (HsEg5) is reported as 2170 nM.
With `CCC(c1nc2cc(Cl)ccc2c(=O)n1OCc1ccccc1)N(CCCN)C(=O)c1ccc(C)cc1` (stereo not drawn) [Compound 32, N-(3-Aminopropyl)-N-{1-[3-(benzyloxy)-7-chloro-4-oxo-3,4-dihydroquinazolin-2-yl]propyl}-4-methylbenzamide] the GI50 (NCI-H460; read-out: MTS NCI H460 GI50) was 956 nM, the GI50 (A549) was 1870 nM and the IC50 (HsEg5) was 1390 nM.
Molecule `CC[C@H](c1nc2cc(Cl)ccc2c(=O)n1Nc1ccccc1)N(CCCN)S(=O)(=O)c1ccsc1` [Compound 34, N-(3-Aminopropyl)-N-[(1R)-1-(3-anilino-7-chloro-4-oxo-3,4-dihydroquinazolin-2-yl)propyl]thiophene-3-sulfonamide] has a GI50 (NCI-H460; read-out: MTS NCI H460 GI50) of 5470 nM, a GI50 (A549) of 6360 nM and an IC50 (HsEg5) of 1650 nM.
Molecule `CC(C)CC(c1nc2cc(Cl)ccc2c(=O)n1Nc1ccccc1)N(CCCN)C(=O)c1ccc(F)c(F)c1` (stereo not drawn) [Compound 35, N-(3-Aminopropyl)-N-[1-(3-anilino-7-chloro-4-oxo-3,4-dihydroquinazolin-2-yl)-3-methylbutyl]-3,4-difluorobenzamide] has a GI50 (NCI-H460; read-out: MTS NCI H460 GI50) of 6150 nM, a GI50 (A549) of 4520 nM and an IC50 (HsEg5) of 1960 nM.
For `CC(C)CC(c1nc2cc(Cl)ccc2c(=O)n1Nc1ccccc1)N(CCCN)C(=O)c1cc(Cl)cc(Cl)c1` (stereo not drawn) [Compound 36, N-(3-Aminopropyl)-N-[1-(3-anilino-7-chloro-4-oxo-3,4-dihydroquinazolin-2-yl)-3-methylbutyl]-3,5-dichlorobenzamide], the GI50 (NCI-H460; read-out: MTS NCI H460 GI50) was 3770 nM, the GI50 (A549) was 4370 nM and the IC50 (HsEg5) was 1860 nM.
